# Data taken from publication PMC12866788, “Alternative Pathway for Methyl Supply through the Coupling of SHMT1 and PEMT to Maintain Astrocytic Homeostasis in Parkinson's Disease” (Advanced Science, 2025).
# Target: T1, SHMT1-PEMT complex (Mus musculus, UniProt P50431+Q61907)
# T1 construct: native SHMT1-PEMT complex, co-immunoprecipitate / NP-40 lysate of mouse primary astrocytes; full length, untagged; direct SHMT1-PEMT contact not proven
# T1 sequence (P50431 1-478): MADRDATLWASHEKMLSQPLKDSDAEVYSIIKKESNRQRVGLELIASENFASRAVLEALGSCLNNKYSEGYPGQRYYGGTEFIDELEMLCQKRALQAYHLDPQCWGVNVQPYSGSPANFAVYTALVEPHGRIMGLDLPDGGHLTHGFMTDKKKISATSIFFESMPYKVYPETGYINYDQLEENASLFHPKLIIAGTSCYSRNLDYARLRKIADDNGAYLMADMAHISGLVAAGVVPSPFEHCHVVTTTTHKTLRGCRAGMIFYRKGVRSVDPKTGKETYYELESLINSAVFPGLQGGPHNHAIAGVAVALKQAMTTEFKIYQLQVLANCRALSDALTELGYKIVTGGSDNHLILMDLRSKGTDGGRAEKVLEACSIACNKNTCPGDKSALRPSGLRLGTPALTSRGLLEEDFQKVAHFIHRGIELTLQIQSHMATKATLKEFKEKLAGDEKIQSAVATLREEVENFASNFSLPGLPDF
# T1 sequence (Q61907 1-199): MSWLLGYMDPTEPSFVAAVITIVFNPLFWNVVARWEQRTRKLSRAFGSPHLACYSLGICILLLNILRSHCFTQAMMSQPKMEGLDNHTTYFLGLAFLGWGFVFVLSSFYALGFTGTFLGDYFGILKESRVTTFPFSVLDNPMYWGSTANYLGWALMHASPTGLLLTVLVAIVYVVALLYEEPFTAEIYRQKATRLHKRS
# Test: CETSA and DARTS of co-IP samples, Western blot
# Type: biochemical
# Conditions: 10 µM isoorientin; astrocytes with MPP+ 24 h; heating at 37-67 °C 3 min; protease K digestion 1:400-1:3200; either chain may hold the compound
compound,measurement,value
"O=c1cc(-c2ccc(O)c(O)c2)oc2cc(O)c([C@@H]3O[C@H](CO)[C@@H](O)[C@H](O)[C@H]3O)c(O)c12 [TMA0698, Isoorientin]","CETSA and DARTS of co-IP samples, Western blot",we found that Iso significantly promoted SHMT1 and PEMT protein stability
